Values quoted from earlier work in patent US20090148399A1, “Controlled release attractant for gravid female mosquitoes” (priority 2007, published 2009).

System: gravid female C. quinquefasciatus
Conditions: gravid female Culex quinquefasciatus

Compound | oviposition attractancy
CCCCCCCCCC[C@H](OC(C)=O)[C@H]1CCCC(=O)O1 [(5R,6S)-6-acetetoxy-5-hexadecanolide] | attracts other females of the same species to deposit their eggs gregariously
Cc1c[nH]c2ccccc12 [3-Methyl indole] | highly effective attractant
